Each structure is given as a SMILES string.

For orientation: melting point means the temperature of the solid-liquid transition. `Cc1c(F)cc(C(=O)NC2CC2)cc1-n1cc(Br)nc(NC2(c3ccccc3OCCN(C)C(=O)OCc3ccccc3)CC2)c1=O` gave a melting point of 116 to 120 °C.
Turning to `CCc1oc2ccccc2c1C(C)(C)C(N)=NO`, the melting point was in the range of 118 to 120 °C.
In turn, `Cc1cn(C)c2cc(C(F)(F)F)c(O)cc12` gave a melting point of 256 °C.
`CN1CCN(Cc2nnc(S)n2Cc2cccc(F)c2)CC1` gave a melting point of 180 °C.
Molecule `CCn1c(C(F)(F)F)n[nH]c1=O` showed a melting point of 54 °C.
`O=C(CN1CCC(Cc2ccc(F)cc2)CC1)Nc1ccc2cn[nH]c2c1` registered a melting point of 135 to 137 °C.
Molecule `CCCC(=O)c1cccc(NC(=O)C=C(C)Cl)c1` returned a melting point of 106 °C.
`CC(C)(C)c1ccc(-c2nc(COc3cccc4cc(NS(=O)(=O)C(F)(F)F)ccc34)co2)cc1` gave a melting point of 165 to 167 °C.
On to `CC(O)c1ccc2c(c1)ncn2-c1cccc(-c2cccnc2O)c1` (configuration not stated), for which the melting point was in the range of 133 to 137 °C.
`O=C(O)C1Cc2ccccc2N1C(=O)CCSSCCC(=O)N1c2ccccc2CC1C(=O)O` (configuration not stated) registered a melting point of 213 to 216 °C.
Molecule `O=C1c2cccc3cc4ccccc4c(c23)C(=O)N1CCCNCCCCNCCCN1C(=O)c2cccc3cc4ccccc4c(c23)C1=O` came in with a melting point of 183 °C.
For `Cc1nn(C)c(C(=O)N(C)C)c1[N+](=O)[O-]`, the melting point lay in the range of 57 to 59.5 °C.
For the molecule `Cc1c(-c2ccncc2)c(-c2ccc(F)cc2)n2c1SCC2`, the melting point is 208 °C.
Consider `CC(C)c1cccc(C(C)C)c1NC(=O)Nc1ccc(-c2ccccc2)nc1-c1ccccc1`, for which the melting point lay within 206 to 208 °C.
The molecule `COC(=S)c1cc(F)c(-c2ccccc2)nc1Nc1ccc(F)cc1F` displayed a melting point of 128 °C.
In the case of `CC(=O)OC1CSC(O)C(OC(C)=O)C1OC(C)=O` (configuration not stated), the melting point worked out at 115 °C.
Consider `CCCOc1ccc(S(=O)(=O)N2CCN(CC)CC2)cc1C(=O)O`, for which the melting point lay within 143 to 145 °C.
`Cc1c(-c2cccc(O)c2)n(Cc2ccc(OCCN3CCCCC3)cc2)c2ccc(O)cc12` showed a melting point of 115 to 118 °C.
Regarding `CC(=O)OC1Oc2ccc(OS(C)(=O)=O)cc2C1(C)C` (configuration not stated), the melting point lay within 84 to 85 °C.
In turn, `CCOC(=O)c1oc2cc(SC(=O)N(C)C)ccc2c1C` had a melting point of 112 to 114 °C.
`CC(C)N(C[C@H](O)COc1ccc(OCc2ccccc2)cc1)S(C)(=O)=O` registered a melting point of 96 to 97 °C.
In turn, `O=C(O)CCC(=O)NC1CCCCC1` yielded a melting point of 168 to 170 °C.
With `COc1ccc2c(=O)c(-c3ccc(OCC4CO4)cc3)coc2c1` (configuration not stated), the melting point lay within 153 to 154 °C.
The figure for `CC(C)Cn1cnc2cnc3ccc(OCc4ccccc4)cc3c21` is 129 to 133 °C.
On to `C/C(=C\Cn1oc(=O)[nH]c1=O)c1ccc2oc(Cc3nc(-c4ccccc4)oc3C)cc2c1`, for which the melting point fell in the range of 81 to 83 °C.
For `COC(=O)C1=C(C)Nc2nccn2C1c1ccccn1` (configuration not stated), the melting point was in the range of 224 to 226 °C.
In turn, `CN1CCN(c2nc3sc4c(NCc5ccco5)ncnc4c3c3c2COC(C)(C)C3)CC1` had a melting point of 166 to 168 °C.
The molecule `N#Cc1c[nH]c(-c2ccc(Cl)cc2)c1` registered a melting point of 174 to 175 °C.
In turn, `N=C(Nc1cccc(NC(=O)C=Cc2ccccc2)c1)c1ccccc1` showed a melting point of 115 to 117 °C.
Molecule `CCC(Oc1cc(F)ccc1F)C1=NCCN1` (configuration not stated) displayed a melting point of 110 °C.
As for `CCOC(=O)c1cn(C)c2cc(C(C)(C)C)ccc2c1=O`, the melting point lay in the range of 138 to 140 °C.
`CC(C)n1nc(CC(=O)c2cccc(Cl)c2)ccc1=O`: the melting point lay in the range of 85 to 86 °C.
Consider `COC(=N)N1CCC(c2nn(-c3ccc(C(F)(F)F)cc3)c3ccccc23)CC1`, for which the melting point was 113 to 115 °C.
The same measure for `CC(=O)SCC(=O)c1ccc(Cl)c(S(N)(=O)=O)c1`: 137 °C.
For `O=C(O)CN1C(=O)C(=Cc2c[nH]c3ccc(Cl)cc23)SC1=S`, the melting point lay within 278 to 282 °C.
`Nc1nccc(-c2c[nH]c3nccc(CCc4ccccc4)c23)n1` returned a melting point of 196 to 198 °C.
The same measure for `CC12CCCC(C1)OC2=O` (configuration not stated): 37 to 38 °C; for `COc1cc2ncc(C#N)c(Nc3ccc4c(C)cc(=O)[nH]c4c3)c2cc1OC`: more than 300 °C.
`CCc1ccc2c(c1)C=Cc1cc(C)ccc1C2c1cn(-c2ccnc(N3CCCC3C(=O)O)n2)c(=O)[nH]c1=O` (configuration not stated) returned a melting point of 185 °C.
`CC(C)(C)Sc1ccc(CN(O)C(N)=O)s1`: the melting point lay in the range of 101 to 103 °C.
`COC(=O)c1cccc2[nH]cc(CC[N+](=O)[O-])c12` displayed a melting point of 103 °C.
For the molecule `O=C(Nc1ccc(Br)cc1)N1CCN2CCC1CC2`, the melting point lay in the range of 228 to 231 °C.
With `Cc1cccc(Nc2c(N)cc(C(=O)O)cc2S(N)(=O)=O)c1`, the melting point was 280 to 282 °C.
In turn, `O=C(O)C1=Cc2cc(Cl)c(Oc3ccc(Cl)c(F)c3)cc2OC1C(F)(F)F` (configuration not stated) returned a melting point of 207 °C.
The molecule `O=C1NC(=O)C(Cc2ccc(OCCON=Cc3cccc(-c4ccccc4)c3)cc2)S1` (configuration not stated) came in with a melting point of 128 °C.
In turn, `COC(=O)c1scc(-c2ccccc2)c1S(=O)(=O)NC(=O)Nc1nc(OC)cc(OC)n1` yielded a melting point of 225 to 227 °C.
In turn, `O=C(NCCc1c[nH]c2ccc(C(=O)O)cc12)OCc1ccccc1` showed a melting point of 186 to 188 °C.
`Cc1onc(-c2ccccc2)c1-c1cc(F)c(S(C)(=O)=O)c(F)c1` returned a melting point of 140 to 143 °C.
The figure for `COCCOc1ccc(CCCOC(=O)NCC2CC2)c(Oc2ncc(C(F)(F)F)cc2Cl)c1` is 87.8 to 87.9 °C; for `CCN1CCC2(c3cccc(OC)c3)Cc3[nH]c(C(=O)Nc4ccccc4)c(C)c3CC2C1` (configuration not stated) it is 178 to 180 °C.
For `OCC(O)Cc1c(OCc2ccccc2)ccc2ncccc12` (configuration not stated), the melting point is 160 to 162 °C.
Molecule `CCCCCCCNC(=O)Nc1ccc(N(C)C)cc1C(=O)NCC1CCN(C(c2ccc(Cl)cc2)c2ccc(Cl)cc2)CC1` showed a melting point of 216 °C.
The figure for `CCCCCCCN(CCCCCSc1nc(-c2ccc(OC)cc2)c(-c2ccc(OC)cc2)[nH]1)c1nc2ccccc2[nH]1` is 78 to 80 °C; for `O=C(Nc1ccncc1)Nc1ccc(-c2nc(N3CCOCC3)c3nnn(C4CCOCC4)c3n2)cc1` it is 332 °C; for `O=C1CC(c2ccccc2)C(c2ccccc2)=NN1` (configuration not stated) it is 221 to 223 °C.
The same measure for `N#Cc1ccccc1N1CCN(Cc2nc3ccccc3[nH]2)CC1`: 236 to 237 °C.
`CCCCc1nc(C(O)C(C)C)c(C(N)=O)n1Cc1ccc(-c2ccccc2-c2nnn[nH]2)cc1` (configuration not stated): the melting point fell in the range of 155 to 157 °C.
On to `C=Cc1cc2c(Cl)cc(F)c(-n3c(=O)cc(C(F)(F)F)n(C)c3=O)c2o1`, for which the melting point is 108 to 109 °C.
As for `Cc1cc2c(cc1C)C1(CO2)C(=O)N(C(c2ccccc2)c2ccccc2)c2ccccc21` (configuration not stated), the melting point was in the range of 193 to 195 °C.
Molecule `CN1c2ccc(Cl)cc2C(c2ccccc2Cl)=Nc2cccnc21` displayed a melting point of 150 to 152 °C.
As for `CCOC(=O)c1c2c(nc3ccccc13)CCN(C(=O)OCC)CC2`, the melting point is 94 °C.
The figure for `CCOC(=O)C(CCN1CCN(c2ncc(F)cn2)CC1)C(=O)c1ccc(F)cc1` (configuration not stated) is 95 to 96 °C; for `CCOC(=O)c1cn2c(n1)CN(C(=O)CCl)c1ccccc1-2` it is 178 to 183 °C.
With `CCN1CCN(Cc2nc3sc4c(c3c(=O)n2-c2ccccc2Cl)CCCC4)CC1`, the melting point lay in the range of 140 to 142 °C.
`COC(=O)c1cc(O)c2nc(C)n(C)c2c1` came in with a melting point of 286 °C.
Take `C(=Cc1ccc(-c2cc3cc(-c4ccccc4)ccc3o2)cc1)c1ccc(-c2ccccc2)cc1`: the melting point was in the range of 356 to 358 °C.
As to `Cn1nnc2c(N3CCOCC3)nc(Cl)nc21`, the melting point came to 168 °C.
As for `CC1(C)COC(c2ccc(F)cc2-c2ccc3c(c2)CCC(Cc2ccccc2)C3O)=N1` (configuration not stated), the melting point was in the range of 88 to 89 °C.
The same measure for `CCn1nc2c(N)nc3ccccc3c2c1CC1(O)CCOCC1`: 253 to 255 °C; for `COc1c(O)ccc2cc[nH]c12`: 83 to 84 °C.
`Cc1nnc2n1-c1ccc(Cl)cc1C(=S)NC2` came in with a melting point of 298 to 303 °C.
Consider `CCCc1c(OCCCC(=O)NCCc2cccnc2)ccc(C(C)=O)c1O`, for which the melting point fell in the range of 94 to 96 °C.
`CC1CCCN(C(=O)c2nc(-c3ccccc3)nc3ccccc23)C1` (configuration not stated) returned a melting point of 116 °C.
In turn, `CC(C)COc1ccc(C(=O)N/C(=C\c2ccc(C(C)C)cc2)C(=O)NCCO)cc1` displayed a melting point of 178 to 180 °C.
`CCNC(=O)N1CCN(c2ccc(NC(=O)c3cc(=O)c4cc(F)cc(N5CCN(C)CC5)c4o3)cc2)CC1` showed a melting point of 236 to 238 °C.
`COc1ccc(Br)c(C=O)c1OC(C)=O` registered a melting point of 119 to 120 °C.
Regarding `Cc1cc(Nc2ccnc(Nc3ccc(S(=O)(=O)N4CCC(O)(CN(C)C)CC4)cc3)n2)ccc1F`, the melting point was found to be 233 °C.
Consider `NS(=O)(=O)c1ccc(NC(=O)NC23CC4CC(CC(C4)C2)C3)cc1`, for which the melting point was in the range of 270 to 275 °C.
In the case of `Nc1cc(Oc2cc(Cl)cc(Cl)c2)nc(C(=O)O)c1Cl`, the melting point was 196 °C.
`CC1(C)C(=O)Nc2ccc(C3=NNC(=O)CC3)cc21` had a melting point of more than 300 °C.
`C=C(C)C(=O)CCCCCCOc1ccc(C(=O)O)cc1`: the melting point was 81 to 94 °C.
`COc1cc2c(cc1C(=O)COc1ccc(C(=O)OCc3ccccc3)c(O)c1)C(C)(C)CCC2(C)C` came in with a melting point of 118 to 119 °C.
`COCCOc1ccc(CC(C)CO)c(Oc2ncc(C(F)(F)F)cc2Cl)c1` (configuration not stated) returned a melting point of 84 to 86 °C.
As for `CCC(=O)Nc1nc(CN2CCC(c3c[nH]c4ccccc34)CC2)cs1`, the melting point is 192 to 195 °C.
As to `O=C(NCc1ccc([N+](=O)[O-])cc1)c1ccc2cccnc2c1O`, the melting point is 210 to 212 °C.
Molecule `O=C1CCCc2cc3c(cc21)sc1ccccc13` gave a melting point of 160 to 165 °C.
Molecule `Cc1c(CC(=O)O)oc2ccc(Cc3ccccc3)cc12` showed a melting point of 149 to 150 °C.

Source of the values: a melting point compilation (Tetko et al.; mined from patent text by program, amines drawn as free bases though some values may be those of a salt).
